Measurements reported in US6413530B1, “Pesticidal peptides” (priority 1999, dated 2002).
Where two headings read alike, the source gives them in different places. Where a SMILES comes first, the peptide text is derived from it. Where no end group is shown, it is not given here. [ ]: non-standard residue; d: D form.

What was measured:
[1] = tested on: mosquito larvae; type: in vivo; conditions: newly hatched larvae on autoclaved yeast 1 mg/ml plus peptide, microtiter plates, 7 days
Protocol: Preferably, the subject peptides have an LD50 against mosquito larvae of less than 3.0 μmole/ml. More preferably, the peptides have an LD50 of less than […], and, most preferably, the peptides have an LD50 of less than 1.0 μmole/ml. As used herein, “LD50” refers to a lethal dose of a peptide able to cause 50% mortality of larvae maintained on a diet of 1 mg/ml autoclaved yeast supplemented with the pesticidal polypeptide. (Borovsky, Dov, and Farida Mahmood [1995] Regulatory Peptides 57:273-281).
TMOF can traverse the gut epithelium, enter the hemolymph and bind a gut receptor (Borovsky, D. and F. Mahmood (1995) “Feeding the mosquito Aedes aegypti with TMOF and its analogs; effect on trypsin biosynthesis and egg development,” Regulatory Peptides 57:273-281.; Borovsky et al. (1994) “Characterization and localization of mosquito-gut receptors for trypsin modulating oostatic factor using complementary peptide immunochemistry” FASEB J. 8:350-355.). This characteristic permits the testing of TMOF and its analogues by feeding them to mosquito and other pest larvae. To find out if truncated TMOF peptides have an effect on larval growth and development, a series of peptides were synthesized and tested by feeding them to mosquito larvae at concentrations of 0 to 5.0 mg/ml (Table 2). Individual, newly hatched Aedes aegypti larvae were maintained in separate microtiter plate wells on a diet of autoclaved yeast (1 mg/ml). The diet was supplemented with TMOF peptides (Table 2). An identical number of larvae maintained on yeast served as a control. […] All control groups survived and larval growth and development was normal. Since larvae swallow only a small portion of the yeast particles adsorbed the peptides, it is assumed that approximately 1 to 20 ng are taken orally at the high concentrations.

[2] = tested on: trypsin biosynthesis; test: Trypsin biosynthesis in guts of fourth instar H. virescens fed TMOF analogues ([3H]DFP); type: in vivo, Heliothis virescens; conditions: for reduction in trypsin biosynthesis: fourth instar larvae fed analogue peptides for 5 days; for Trypsin μg ± S.E.M.: guts removed after 5 days feeding 0.8 μg analog, incubated with [3H]DFP; for Inhibition (% ± S.E.M.) of trypsin: versus control, after 5 days feeding 0.8 μg analog
Protocol: (§1) Individual first instar and fourth instar larvae of H. virescens were maintained in separate plastic cups and were fed on artificial diet blocks on which different concentrations of TMOF (0 to 1.6 mg) were adsorbed. Larvae were fed for 5 to 14 days and larval weight and trypsin activity were measured at the end of the experimental periods. […] When first instar larvae were fed for 14 days, an 18% and 26% reduction in weight was observed when analogues 15 and 14 were used (Table 4).

[3] = tested on: First instar larvae of H. virescens; test: Feeding of first instar H. virescens on TMOF analogs for 14 days; type: in vivo, Heliothis virescens; conditions: for reduction in weight: first instar larvae fed for 14 days; for Number of Dead Larvae / Weight (mg) ± S.E.M. / Weight Reduction (%) ± S.E.M.: first instar larvae, 1.6 μg analog, 14 days; for Weight Reduction (%) ± S.E.M.: versus control
Protocol: as §1

[4] = tested on: fourth instar H. virescens; test: Feeding TMOF analogues to fourth instar H. virescens: larval weight; type: in vivo, Heliothis virescens; conditions: for reduction in larval weight: fourth instar larvae fed analogue peptides for 5 days; for Weight Gain / Weight mg ± S.E.M. End: fourth instar larvae; for Weight Gain: 0.8 μg analog for 5 days; for Weight mg ± S.E.M. End: synthetic food and 0.8 μg analog for 5 days
Protocol: as §1

Compound: YDPAF [Compound 3, YDPAF]
- LD50 ± S.E.M. ([1]; left half of Table 2): 0.33 ± 0.2 mM

Compound: PAA [Compound 37]
- LD50 ± S.E.M. ([1]; right half of Table 2): 2.4 ± 0.34 Mm

Compound: YDPAP [Compound 12, YDPAP, reference compound]
- LD50 ± S.E.M. ([1]; left half of Table 2): 1.64 ± 0.03 mM

Compound: N[C@@H](Cc1ccc(O)cc1)C(=O)N[C@H](CC(=O)O)C(=O)N1CCC[C@H]1C(=O)O [Compound 22, Y(D)DP] (H-Tyr-[dD]-Pro-OH; N-terminus and C-terminus assumed)
- LD50 ± S.E.M. ([1]; left half of Table 2): 0.28 ± 0.01 mM

Compound: APA [Compound 28]
- LD50 ± S.E.M. ([1]; right half of Table 2): 1.0 ± 0.07 Mm

Compound: YAP [Compound 36]
- LD50 ± S.E.M. ([1]; right half of Table 2): 2.3 ± 0.5 Mm

Compound: ADP [Compound 40]
- LD50 ± S.E.M. ([1]; right half of Table 2): >6.6 Mm

Compound: YDPAA [Compound 19, YDPAA]
- LD50 ± S.E.M. ([1]; left half of Table 2): 1.6 ± 0.13 mM

Compound: YDAAP [Compound 15, YDAAP]
- LD50 ± S.E.M. ([1]; left half of Table 2): 1.0 ± 0.18 mM
- reduction in trypsin biosynthesis [2]: reduction
- Trypsin μg ± S.E.M. [2]: 2.1 ± 0.2 µg
- Inhibition (% ± S.E.M.) of trypsin [2]: 17 ± 1.6%
- reduction in weight [3]: 18%
- Number of Dead Larvae [3]: 0
- Weight (mg) ± S.E.M. [3]: 133 ± 7 mg
- Weight Reduction (%) ± S.E.M. [3]: 18 ± 1%
- reduction in larval weight [4]: reduction
- Weight Gain [4]: 179 mg
- Weight mg ± S.E.M. End [4]: 217 ± 9.5 mg

Compound: FDPAP [Compound 5, FDPAP]
- LD50 ± S.E.M. ([1]; left half of Table 2): 0.37 ± 0.15 mM

Compound: DPA [Compound 23]
- LD50 ± S.E.M. ([1]; right half of Table 2): 0.4 ± 0.03 Mm

Compound: MPDYPPPPP [Compound 2, MPDYP5]
- LD50 ± S.E.M. ([1]; left half of Table 2): >3.0 mM

Compound: YDPGP [Compound 16, YDPGP]
- LD50 ± S.E.M. ([1]; left half of Table 2): 1.1 ± 0.18 mM
- Trypsin μg ± S.E.M. [2]: 2.1 ± 0.1 µg
- Inhibition (% ± S.E.M.) of trypsin [2]: 17 ± 1%
- Number of Dead Larvae [3]: 2
- Weight (mg) ± S.E.M. [3]: 153 ± 10 mg
- Weight Reduction (%) ± S.E.M. [3]: 6 ± 0.4%
- Weight Gain [4]: 163.1 mg
- Weight mg ± S.E.M. End [4]: 199.8 ± 11 mg

Compound: (D)YDP [Compound 24]
- LD50 ± S.E.M. ([1]; right half of Table 2): 0.51 ± 0.05 Mm

Compound: AAP [Compound 29]
- LD50 ± S.E.M. ([1]; right half of Table 2): 1.08 ± 0.07 Mm

Compound: DYP [Compound 31]
- LD50 ± S.E.M. ([1]; right half of Table 2): 1.27 ± 0.17 Mm
- Trypsin μg ± S.E.M. [2]: 2.2 ± 0.3 µg
- Inhibition (% ± S.E.M.) of trypsin [2]: 14 ± 1.8%
- Number of Dead Larvae [3]: 1
- Weight (mg) ± S.E.M. [3]: 149 ± 9 mg
- Weight Reduction (%) ± S.E.M. [3]: 9 ± 0.5%
- Weight Gain [4]: 180.5 mg
- Weight mg ± S.E.M. End [4]: 216.7 ± 13 mg

Compound: FAP [Compound 39]
- LD50 ± S.E.M. ([1]; right half of Table 2): 3.8 ± 0.23 Mm

Compound: YDPAPPPPPP [Compound 1, YDPAP6, reference compound]
- LD50 ± S.E.M. ([1]; left half of Table 2): 0.2 ± 0.02 mM

Compound: ADPAP [Compound 21, ADPAP]
- LD50 ± S.E.M. ([1]; left half of Table 2): 2.0 ± 0.36 mM
- Trypsin μg ± S.E.M. [2]: 2.4 ± 0.3 µg
- Inhibition (% ± S.E.M.) of trypsin [2]: 5 ± 0.6%
- Number of Dead Larvae [3]: 0
- Weight (mg) ± S.E.M. [3]: 141 ± 9 mg
- Weight Reduction (%) ± S.E.M. [3]: 7 ± 0.4%
- Weight Gain [4]: 174.1 mg
- Weight mg ± S.E.M. End [4]: 209.7 ± 12 mg

Compound: YNPAP [Compound 9, YNPAP]
- LD50 ± S.E.M. ([1]; left half of Table 2): 0.55 ± 0.03 mM

Compound: YDP [Compound 34]
- LD50 ± S.E.M. ([1]; right half of Table 2): 2.3 ± 0.4 Mm
- Trypsin μg ± S.E.M. [2]: 2.1 ± 0.3 µg
- Inhibition (% ± S.E.M.) of trypsin [2]: 19 ± 3.2%
- Number of Dead Larvae [3]: 0
- Weight (mg) ± S.E.M. [3]: 157 ± 10 mg
- Weight Reduction (%) ± S.E.M. [3]: 4 ± 0.2%
- Weight Gain [4]: 186.3 mg
- Weight mg ± S.E.M. End [4]: 223.4 ± 16 mg

Compound: YDFAP [Compound 14, YDFAP]
- LD50 ± S.E.M. ([1]; left half of Table 2): 0.74 ± 0.13 mM
- reduction in trypsin biosynthesis [2]: reduction
- Trypsin μg ± S.E.M. [2]: 2.1 ± 0.2 µg
- Inhibition (% ± S.E.M.) of trypsin [2]: 19 ± 1.5%
- reduction in weight [3]: 26%
- Number of Dead Larvae [3]: 1
- Weight (mg) ± S.E.M. [3]: 121 ± 7 mg
- Weight Reduction (%) ± S.E.M. [3]: 26 ± 1.5%
- reduction in larval weight [4]: reduction
- Weight Gain [4]: 164 mg
- Weight mg ± S.E.M. End [4]: 201 ± 12 mg

Compound: YDG [Compound 26]
- LD50 ± S.E.M. ([1]; right half of Table 2): 0.95 ± 0.11 Mm

Compound: DAA [Compound 25]
- LD50 ± S.E.M. ([1]; right half of Table 2): 0.91 ± 0.06 Mm

Compound: PAP [Compound 38]
- LD50 ± S.E.M. ([1]; right half of Table 2): 3.17 ± 0.14 Mm

Compound: YSPAP [Compound 18, YSPAP]
- LD50 ± S.E.M. ([1]; left half of Table 2): 1.4 ± 0.03 mM
- reduction in trypsin biosynthesis [2]: reduction
- Trypsin μg ± S.E.M. [2]: 2.0 ± 0.2 µg
- Inhibition (% ± S.E.M.) of trypsin [2]: 19 ± 2%
- Number of Dead Larvae [3]: 0
- Weight (mg) ± S.E.M. [3]: 168 ± 11 mg
- Weight Reduction (%) ± S.E.M. [3]: 0%
- reduction in larval weight [4]: reduction
- Weight Gain [4]: 151 mg
- Weight mg ± S.E.M. End [4]: 188 ± 10.6 mg

Compound: YDPAL [Compound 7, YDPAL]
- LD50 ± S.E.M. ([1]; left half of Table 2): 0.52 ± 0.03 mM

Compound: YDF [Compound 27]
- LD50 ± S.E.M. ([1]; right half of Table 2): 0.97 ± 0.11 Mm

Compound: YDPLP [Compound 6, YDPLP]
- LD50 ± S.E.M. ([1]; left half of Table 2): 1.5 ± 0.04 mM

Compound: FDP [Compound 33]
- LD50 ± S.E.M. ([1]; right half of Table 2): 1.98 ± 0.6 Mm

Compound: YDLAP [Compound 13, YDLAP]
- LD50 ± S.E.M. ([1]; left half of Table 2): 0.6 ± 0.05 mM

Compound: YSF [Compound 30]
- LD50 ± S.E.M. ([1]; right half of Table 2): 1.08 ± 0.12 Mm

Compound: YAPAP [Compound 8, YAPAP]
- LD50 ± S.E.M. ([1]; left half of Table 2): 0.54 ± 0.13 mM

Compound: YFPAP [Compound 11, YFPAP]
- LD50 ± S.E.M. ([1]; left half of Table 2): 0.64 ± 0.03 mM

Compound: FSP [Compound 35]
- LD50 ± S.E.M. ([1]; right half of Table 2): 2.3 ± 0.13 Mm

Compound: YDA [Compound 32]
- LD50 ± S.E.M. ([1]; right half of Table 2): 1.6 ± 0.13 Mm

Compound: C[C@H](NC(=O)[C@@H]1CCCN1C(=O)[C@@H](CC(=O)O)NC(=O)[C@@H](N)Cc1ccc(O)cc1)C(=O)N1CCC[C@H]1C(=O)O [Compound 17, Y(D)DPAP] (H-Y[dD]PAP-OH; N-terminus and C-terminus assumed)
- Trypsin μg ± S.E.M. [2]: 2.1 ± 0.2 µg
- Inhibition (% ± S.E.M.) of trypsin [2]: 15 ± 1.3%
- Number of Dead Larvae [3]: 1
- Weight (mg) ± S.E.M. [3]: 152 ± 27 mg
- Weight Reduction (%) ± S.E.M. [3]: 7 ± 1%
- Weight Gain [4]: 153 mg
- Weight mg ± S.E.M. End [4]: 188 ± 12 mg

Compound: YEPAP [Compound 4, YEPAP]
- LD50 ± S.E.M. ([1]; left half of Table 2): 0.35 ± 0.02 mM

Compound: YDPFP [Compound 20, YDPFP]
- LD50 ± S.E.M. ([1]; left half of Table 2): 1.7 ± 0.4 mM
